Where two headings read alike, the source gives them in different places.
How the values were obtained:
[1] = target: T1, human recombinant α1b adrenoceptor (Homo sapiens, UniProt P35368); assay: Radioligand binding ([3H]prazosin) on membranes of CHO cells expressing cloned α1b adrenoceptor; conditions: human cloned receptor, CHO cell membranes, 0.2 nM [3H]prazosin; read-out: Affinity (Ki) α1b
T1 construct: expressed in transfected cells; host or cells: CHO cells (membranes)
T1 sequence (P35368 1-520): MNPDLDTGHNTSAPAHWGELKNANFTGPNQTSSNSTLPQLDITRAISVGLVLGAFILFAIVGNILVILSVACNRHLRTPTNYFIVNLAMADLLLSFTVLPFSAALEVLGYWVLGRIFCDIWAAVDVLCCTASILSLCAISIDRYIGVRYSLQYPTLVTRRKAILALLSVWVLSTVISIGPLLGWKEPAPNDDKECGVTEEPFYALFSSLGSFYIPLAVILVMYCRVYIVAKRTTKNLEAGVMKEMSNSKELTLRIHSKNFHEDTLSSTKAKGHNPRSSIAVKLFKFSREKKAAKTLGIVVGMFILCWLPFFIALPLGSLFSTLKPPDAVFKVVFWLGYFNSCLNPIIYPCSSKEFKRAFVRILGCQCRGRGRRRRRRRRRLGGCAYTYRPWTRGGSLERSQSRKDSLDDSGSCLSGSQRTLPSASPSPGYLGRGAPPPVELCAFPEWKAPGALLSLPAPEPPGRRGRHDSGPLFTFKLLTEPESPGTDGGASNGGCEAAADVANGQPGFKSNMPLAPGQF
Procedure: (§1) The determination of affinity for cloned subtypes of human α1 adrenergic receptors was performed in membranes from CHO cells (chinese hamster ovary cells) transfected by electroporation with DNA expressing the genes encoding each α1-adrenoceptor subtype, namely α1a, α1b and α1d.. Cloning and stable expression of the human α1-adrenoceptor gene were performed as previously described (Testa et al., Pharmacol. Comm. 6, 79-86 (1995)). CHO cell membranes were incubated in […] Tris pH 7.4 with 0.2 nM [^3H]prazosin, in a final volume of 1.02 ml for 30 minutes at 25°C, in the absence or presence of competing drugs (1 pM-10 µM). Non-specific binding was determined in the presence of 10 µM phentolamine. Incubation was stopped by addition of ice-cold Tris buffer and rapid filtration through 0.2% polyethyleneimine pretreated Schleicher & Schuell GF52 filters. Genomic clone G-21 coding for the human 5-HT1A-serotoninergic receptor was stably transfected in a human cell line (HeLa) (Fargin et al., J. Biol. Chem. 284, 14848-14852 (1989)). The HeLa cells were grown as monolayers in Dulbecco's modified Eagle's medium (DMEM), supplemented with 10% foetal calf serum and gentamicin (100 µg/ml), 5% CO2, at 37°C. The cells were detached from the growth flask at 95% confluence by a cell scraper and were lysed in ice-cold 5 mM Tris and 5-mM EDTA buffer (pH 7.4). The homogenates were centrifuged at 40000 x g x 20 minutes and the membranes were re-suspended in a small volume of ice-cold 5 mM Tris and 5-mM EDTA buffer (pH 7.4) and immediately frozen and stored at -70°C until use. On the experiment day, the cell membranes were re-suspended in a buffer containing 50 mM Tris (pH 7.4), 2.5 mM MgCl2, 10 µM pargyline (Fargin et al., Nature 335, 358-360 (1988)). […] The incubation was stopped by addition of ice-cold Tris buffer and rapid filtration through 0.2%-polyethyleneimine-pretreated Schleicher & Schuell filters. The inhibition of specific binding of the radioligands by the drugs was analysed to estimate the IC50 value by using the non-linear curve-fitting programme Allfit (De Lean et al., Am. J. Physiol. 235, E97-E102 (1978)). The IC50 value was converted to an affinity constant (Ki) by the equation of Cheng & Prusoff (Biochem. Pharmacol. 22, 3099-3108 (1973)). Data were expressed as mean of Ki.

[2] = target: T2, human recombinant α1a adrenoceptor (Homo sapiens, UniProt P35348); assay: Radioligand binding ([3H]prazosin) on membranes of CHO cells expressing cloned α1a adrenoceptor; conditions: read-out: Affinity (Ki) α1a
T2 construct: expressed in transfected cells; host or cells: CHO cells (membranes)
T2 sequence (P35348 1-466): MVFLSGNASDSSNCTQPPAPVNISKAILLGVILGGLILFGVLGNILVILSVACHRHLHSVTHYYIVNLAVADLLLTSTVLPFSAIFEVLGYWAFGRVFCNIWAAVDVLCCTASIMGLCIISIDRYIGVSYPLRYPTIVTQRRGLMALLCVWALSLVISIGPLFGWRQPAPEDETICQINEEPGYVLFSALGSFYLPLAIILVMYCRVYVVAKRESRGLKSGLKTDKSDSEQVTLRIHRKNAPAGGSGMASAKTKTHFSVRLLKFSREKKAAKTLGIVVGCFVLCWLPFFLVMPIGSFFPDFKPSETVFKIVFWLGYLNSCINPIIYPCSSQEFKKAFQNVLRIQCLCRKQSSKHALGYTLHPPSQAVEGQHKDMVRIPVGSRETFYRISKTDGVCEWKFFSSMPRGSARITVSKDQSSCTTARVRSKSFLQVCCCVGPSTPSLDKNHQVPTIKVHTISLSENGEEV
Procedure: as §1, with “Genomic clone G-21 coding for the human 5-HT1A-serotoninergic receptor was stably transfected in a human cell line (HeLa) (Fargin et al., J. Biol. Chem. 284, 14848-14852 (1989)).” left out

[3] = human cloned receptor, CHO cell membranes, 0.2 nM [3H]prazosin

`CC(CN1CCN(c2cc(Cl)ccc2Cl)CC1)N1C(=O)CC2(CCCC2)CC1=O` (centres unmarked) [Example 16, 8-{2-[4-(2,5-Dichlorophenyl)-1-piperazinyl]-1-methylethyl}-8-azaspiro[4.5]decane-7,9-dione] gave a Ki [1] of 13.1 nM and a Ki [2, 3] of 187 nM.

With `O=C1CC2(CCCC2)CC(=O)N1CCN1CCN(c2cc(F)ccc2Cl)CC1` [Example 9, 8-{2-[4-(2-Chloro-5-fluorophenyl)-1-piperazinyl]-ethyl}-8-azaspiro[4.5]decane-7,9-dione] the Ki [1] was 10.1 nM and the Ki [2, 3] was 108 nM.

`CCC1(C)CC(=O)N(CCN2CCN(c3cc(Cl)ccc3Cl)CC2)C(=O)C1` [Example 13, 1-{2-[4-(2,5-Dichlorophenyl)-1-piperazinyl]-ethyl}-4-ethyl-4-methylpiperidinyl-2,6-dione] gave a Ki [1] of 43.4 nM and a Ki [2, 3] of 59.8 nM.

Work on `O=C1CC2(C=CN1CCN1CCN(c3cc(Cl)ccc3Cl)CC1)CCCC2` [Example 20, 8-{2-[4-(2,5-Dichlorophenyl)-1-piperazinyl]-ethyl}-8-azaspiro[4.5]dec-9,10-en-7-one] yielded a Ki [1] of 15.8 nM and a Ki [2] of 27.2 nM.

`O=C1CC2(CCCC2)CC(=O)N1CCN1CCN(c2cc(Br)ccc2Br)CC1` [Example 7, 8-{2-[4-(2,5-Dibromophenyl)-1-piperazinyl]-ethyl}-8-azaspiro[4.5]decane-7,9-dione] gave a Ki [1] of 47.5 nM and a Ki [2, 3] of 114 nM.

`O=C1CC2(CCCC2)CC(=O)N1CCN1CCN(c2cc(Cl)ccc2Cl)CC1` [Example 1, 8-{2-[4-(2,5-Dichlorophenyl)-1-piperazinyl]-ethyl}-8-azaspiro[4.5]decane-7,9-dione] was tested, and the Ki [1] was 9.9 nM.

Work on `O=C1CC2(CCCC2)CC(=O)N1CCN1CCC(c2cc(Cl)ccc2Cl)CC1` [Example 17, 8-{2-[4-(2,5-Dichlorophenyl)-1-piperidinyl]-ethyl}-8-azaspiro[4.5]decane-7,9-dione] yielded a Ki [1] of 37.6 nM and a Ki [2, 3] of 119 nM.

In the case of `O=C1CC2(CCC2)CC(=O)N1CCN1CCN(c2cc(Cl)ccc2Cl)CC1` [Example 15, 7-{2-[4-(2,5-Dichlorophenyl)-1-piperazinyl]-ethyl}-7-azaspiro[3.5]nonane-6,8-dione], the Ki [1] is reported as 79.6 nM and the Ki [2, 3] is reported as 120 nM.

`Cc1ccc(C)c(N2CCN(CCN3C(=O)CC4(CCCC4)CC3=O)CC2)c1` [Example 5, 8-{2-[4-(2,5-Dimethylphenyl)-1-piperazinyl]-ethyl}-8-azaspiro[4.5]decane-7,9-dione] gave a Ki [1] of 168 nM and a Ki [2, 3] of 119 nM.

For `CN(CCN1C(=O)CC2(CCCC2)CC1=O)CCN(C)c1cc(Cl)ccc1Cl` [Example 18, N-(2,5-Dichlorophenyl)-N'-{2-(7,9-dioxo-8-azaspiro[4.5]decane-8-yl)-ethyl}-N,N'-dimethyl-1,2-diaminoethane], the Ki [1] was 915 nM and the Ki [2, 3] was 786 nM.

In the case of `O=C1CC2(CCCCC2)CC(=O)N1CCN1CCN(c2cc(Cl)ccc2Cl)CC1` [Example 11, 3-{2-[4-(2,5-Dichlorophenyl)-1-piperazinyl]-ethyl}-3-azaspiro[5.5]undecane-2,4-dione], the Ki [1] is reported as 52.9 nM and the Ki [2, 3] is reported as 331 nM.

`O=C1CC2(CCCC2)CCN1CCN1CCN(c2cc(F)c(F)cc2F)CC1` [Example 24, 8-{2-[4-(2,4,5-Trifluorophenyl)-1-piperazinyl]-ethyl}-8-azaspiro[4.5]decane-7-one] was tested, and the Ki [1] was 22.7 nM and the Ki [2, 3] was 706 nM.

For `O=C1CC2(CCCC2)CC(=O)N1CCN1CCN(c2cc(C(F)(F)F)ccc2F)CC1` [Example 6, 8-{2-[4-(2-Fluoro-5-trifluoromethylphenyl)-1-piperazinyl]-ethyl}-8-azaspiro[4.5]decane-7,9-dione], the Ki [1] was greater than 1000 nM and the Ki [2, 3] was greater than 1000 nM.

Compound `O=C1CCCC(=O)N1CCN1CCN(c2cc(Cl)ccc2Cl)CC1` [Example 2, 1-{2-[4-(2,5-Dichlorophenyl)-1-piperazinyl]-ethyl}-piperidinyl-2,6-dione] has a Ki [1] of 54.1 nM and a Ki [2, 3] of 77.9 nM.

Compound `O=C1CC2(CCCC2)C(=O)N1CCN1CCN(c2cc(Cl)ccc2Cl)CC1` [Example 14, 2-{2-[4-(2,5-Dichlorophenyl)-1-piperazinyl]-ethyl}-2-azaspiro[4.4]nonane-1,3-dione] has a Ki [1] of 83.6 nM and a Ki [2, 3] of 68.3 nM.

Compound `N#Cc1ccc(Cl)cc1N1CCN(CCN2C(=O)CC3(CCCC3)CC2=O)CC1` [Example 8, 8-{2-[4-(5-Chloro-2-cyanophenyl)-1-piperazinyl]-ethyl}-8-azaspiro[4.5]decane-7,9-dione] has a Ki [1] of 17 nM and a Ki [2, 3] of 503 nM.

Work on `O=C1CC2(CCCC2)CC(=O)N1CCN1CCN(c2cc(I)ccc2Cl)CC1` [Example 10, 8-{2-[4-(2-Chloro-5-iodophenyl)-1-piperazinyl]-ethyl}-8-azaspiro[4.5]decane-7,9-dione] yielded a Ki [1] of 448 nM and a Ki [2, 3] of 479 nM.

For `Cc1ccc(F)c(N2CCN(CCN3C(=O)CC4(CCCC4)CC3=O)CC2)c1` [Example 4, 8-{2-[4-(2-Fluoro-5-methylphenyl)-1-piperazinyl]-ethyl}-8-azaspiro[4.5]decane-7,9-dione], the Ki [1] was 119 nM and the Ki [2, 3] was greater than 1000 nM.

Reference: patent EP1200406B1, “CYCLIC AMIDES AND IMIDES HAVING SELECTIVE ANTAGONIST ACTIVITY AT ALPHA-1D ADRENERGIC RECEPTOR” (RECORDATI INDUSTRIA CHIMICA E FARMACEUTICA S.p.a., priority 1999, dated 2001)
